Data reported in patent US9370503B1, “Compounds for treating ocular diseases” (priority 2015, dated 2016).

Legend:
HUVECs [1] = test: MTT assay, proliferation/cytotoxicity in HUVECs; format: cell-based, human; settings: 72 hours
Procedure: (§1) ARPE-19 cells were grown in DMEM/F12 medium supplemented with 10% FBS, 100 units/ml penicillin G, and 100 μg/ml streptomycin sulfate. HUVECs were grown in vascular cell basal medium supplemented with endothelial cell growth kit. Cells were incubated in a humidified incubator at 37° C. under 5% CO2 and 95% air.
(§2) MTT assay was used to measure the viability of ARPE-19 cells and HUVECs. 2×10^5 ARPE-19 cells or 5×10^4 HUVECs were seeded in 96-well plates (100 μl/well) and allowed to grow overnight. Negative control was prepared by adding 100 μl medium without cells. The cells were then treated with fresh medium with a compound of Formula (II) (“(II)”) (0.03, 0.1, 0.3, 1, 3 and 10 μg/ml) and/or oxidants (NaIO3, H2O2, t-BHP and NaN3) for 12, 24, or 72 hours (200 μl/well). The vehicle control group was treated with vehicle. 20 μl MTT (5 mg/ml) was added to wells, and incubated for another 4 h. After incubation, the medium was discarded and 100 μl DMSO was added to solubilize formazan produced from MTT by the viable cells. Absorbance was measured at 570 nm using a microplate reader (Bio-Rad Laboratories, Inc., CA). Cells viability was calculated according to the following formula: Viability of cells (%)=(absorbance in tested sample−absorbance in negative control)/(absorbance in vehicle control−absorbance in negative control)×100%.

HUVECs [2] = test: NaIO3-induced injury in HUVECs (MTT); format: cell-based, human; settings: 3 and 10 μg/ml compound, 72 hours
Procedure: as §1, §2

ARPE-19 cells [3] = test: MTT assay, proliferation/cytotoxicity in ARPE-19 cells; format: cell-based, human; settings: 72 hours
Procedure: as §1, §2

ARPE-19 cells [4] = test: Hypoxia-induced damage in ARPE-19 cells (MTT); format: cell-based, human; settings: hypoxia 1% O2, 72 h
Procedure: as §1
MTT assay was used to measure the viability of ARPE-19 cells and HUVECs. 2×10^5 ARPE-19 cells or 5×10^4 HUVECs were seeded in 96-well plates (100 μl/well) and allowed to grow overnight. Negative control was prepared by adding 100 μl medium without cells. The cells were then treated with fresh medium with a compound of Formula (II) (“(II)”) (0.03, 0.1, 0.3, 1, 3 and 10 μg/ml) and/or oxidants (NaIO3, H2O2, t-BHP and NaN3) for 12, 24, or 72 hours (200 μl/well). The vehicle control group was treated with vehicle. 20 μl MTT (5 mg/ml) was added to wells, and incubated for another 4 h. After incubation, the medium was discarded and 100 μl DMSO was added to solubilize formazan produced from MTT by the viable cells. Absorbance was measured at 570 nm using a microplate reader (Bio-Rad Laboratories, Inc., CA). Cells viability was calculated according to the following formula: Viability of cells (%)=(absorbance in tested sample−absorbance in negative control)/(absorbance in vehicle control−absorbance in negative control)×100%. […]

HUVECs [5] = test: Hypoxia-induced damage in HUVECs (MTT); format: cell-based, human; settings: 72 h
Procedure: as §1, §2
(§3) Cells were allowed to attach overnight, and then exposed to (II) or vehicle under hypoxic condition for 72 h. Hypoxic conditions (1% O2, 5% CO2 and 94% N2) were maintained by using a temperature and humidity controlled environmental C-chamber by O2 and CO2 controllers (Proox Model 110 and Pro CO2 Model 120, Bio Spherix Ltd., Redfield, N.Y., USA) with N2 and CO2 gas sources.

[6] = Hypoxia-induced damage in HUVECs (MTT); format: cell-based, human; settings: human, HUVECs, 10 μg/ml, P<0.01, read-out: decrease of viability of HUVECs in hypoxic condition
Procedure: as §1, §2, §3

ARPE-19 cells [7] = test: H2O2-induced injury in ARPE-19 cells (MTT); format: cell-based, human; settings: 10 μg/ml compound, 24 hours
Procedure: as §1, §2

[8] = test system: laser induced AMD rat model; test: Laser induced AMD rat model, CNV area by fluorescein angiography; format: in vivo; settings: (II) instillation, laser rupture of Bruch's membrane, vs control about 2.5 mm^2
Procedure: The rats were randomly divided into 2 groups. Control group was instilled with vehicle (30% HP-β-CD solution). […] Both eyes of all rats were instilled with 1 drop of ophthalmic solutions 3 times a day for 1 week before and 4 weeks after laser induced injury. The rats were anesthetized for all procedures with intramuscular injection of ketamine (35 mg/kg) and xylazine (5 mg/kg). The pupils were dilated with one drop each of 10 mg/ml atropine, and 25 mg/ml phenylephrine. The fundus was visualized by the VOLK super Pupil XL Biomicroscopy Lens (Keeler Instruments Inc., Broomall, Pa., USA). A double frequency Nd:YAG laser (Laserex LP3532; Lumenis Inc., Salt Lake City, Utah, USA) was used at 532 nm wavelength. Laser parameters were used by 100 μm spot size, 0.15-second exposure and 150-200 mw powers. Five laser spots were made to the ocular fundus at approximately equal distances around the optic nerves. […] Only laser spots with bubble formation were included in the study. Lesions with subretinal hemorrhage were excluded. Fluorescein angiography (FA) was performed after 2 and 4 weeks laser treatment with a digital fundus camera (TRC-50EX; TOPCON, Tokyo, Japan). 100 mg/ml fluorescein sodium salt was injected (0.5 ml/kg) through hypoglossal vein. Both early (under 2 minutes) and late (over 7 minutes) fluorescein phases were captured. […]

For `CC(C)=CCC/C(C)=C/Cc1c([C@@H]2CC(=O)c3c(cc(O)c(CC=C(C)C)c3O)O2)ccc(O)c1O` [Formula (II)], the “effect on proliferation of HUVECs” value (HUVECs [1]; 0.03 μg/ml to 3 μg/ml) was “did not affect”, the inhibition at 10 µg/mL (HUVECs [1]; Homo sapiens, HUVEC, 10 μg/ml) was 92% and the “effect on NaIO3-induced injury in HUVECs” value (HUVECs [2]) was “enhanced”. The “effect on proliferation of ARPE-19 cells” value (ARPE-19 cells [3]; 0.03 μg/ml to 3 μg/ml) was “did not affect”, the inhibition at 10 µg/mL (ARPE-19 cells [3]; Homo sapiens, ARPE-19, 10 μg/ml) was 34% and the “effect on viability of ARPE-19 cells in hypoxic condition” value (ARPE-19 cells [4]; 0.03 μg/ml to 3 μg/ml) was “no effect”. For the same molecule, the “reversal of injury induced by hypoxia in ARPE-19 cells” value (ARPE-19 cells [4]; 10 μg/ml) was 24%, the “increase of viability of HUVECs in hypoxic condition” value (from here on “increase of viability of HUVECs”) (HUVECs [5]; 0.03 μg/ml) was 22% and the “increase of viability of HUVECs” value (HUVECs [5]; 0.1 μg/ml) was 19%. The “increase of viability of HUVECs” value (HUVECs [5]; 0.3 μg/ml) was 26%, the cytotoxicity at 72 h, 10 μg/ml [6] was 97% and the “reversal of H2O2-induced injury in ARPE-19 cells” value (ARPE-19 cells [7]; 200 μM H2O2) was 55%. For the same molecule, the “reversal of H2O2-induced injury in ARPE-19 cells” value (ARPE-19 cells [7]; 400 μM H2O2) was 72% and the “area of CNV formation” value [8] was “significantly suppressed”.
